Test [1] concerns the target T1, ERα (Homo sapiens, UniProt P03372).
T1 construct: HeLa cells transfected with the full length ERα; expressed in transfected cells; host or cells: HeLa
The test can be described thus: SRE-SEAP and AP-1-SEAP reporter assays in HeLa cells transfected with ERα. The following applies: steroids 10^−8 M for 15 minutes (E2 as little as five minutes), SEAP six hours later. The format is cell-based. As for the experimental part: HeLa cells were co-transfected with reporter constructs in which SRE or AP-1 drive the expression of secreted alkaline phosphatase (SEAP), along with the wild type ERα (A and B); or its ligand binding domain (E), or E fused to a membrane (E-Mem) or nuclear (E-Nuc) localization sequence (A). A dominant negaitve (dn) MEK or dn Jnk were also introduced into a subset of the ERα transfected cells. Cells were exposed to vehicle or the indicated steroids (10^−8M) for 15 minutes. The steroid containing media were then removed, the cells were washed twice, and the cultures were continued in fresh medium without steroids. Supernatants were collected six hours later and SEAP activity was assayed. In FIGS. 1A and 1B, 100% indicates activity in vehicle treated cells. (C) HeLa cells were co-transfected with the ERα and nEGFP and wild type or dn mutants of the indicated transcription factors. […] (D) HeLa cells (upper panel) were transiently co-transfected with the ERα, a nonphosphorylatable dn mutant of Bad. […] Cells were then treated as in (C).
Transient transfections and reporter assays: HeLa cells were transfected using Lipofectamine Plus (Life Technologies Inc.). For reporter assays (luciferase or secreated alkaline phosphatase SEAP), serum-starved cells were treated with the indicated steroids for 15 min after which the steroid-containing media were removed, cells washed twice with 1% BSA in PBS, and fresh media without steroid were added. SEAP or luciferase assays were performed 6 h later using the Great EscAPe SEAP Chemiluminescence Kit (Clontech, Palo Alto, Calif.) or the dual luciferase Kit (Promega, Madison, Wis.), respectively, according to the manufacturer's instructions. Both reporter activities were normalized to renilla luciferase activity.

Test [2] has as its system ER (lamb uterus cytosol, human ERα, human ERβ). The test can be described thus: Relative binding affinity by competition with 3H E2 (FIG. 10). As for the experimental part: The proteins were absorbed to hydroxylapatite (HAP) and the free ligand removed by washing (Carlson et al, 1997). Results are expressed as percent specific binding. […] Symbols indicate means±SD of two separate experiments in which each point was determined in duplicate.
Statistical analysis: ANOVA was used to detect treatment effects. Specifically, in FIGS. 1-6 & 8, Dunnett's test (Kuehl et al, 2000) was used to detect differences between various treatments as compared to the vehicle control group. To detect differences in the efficacy of the various compounds shown in FIGS. 7A & B, the dose response curves were compared using tests for linear trend (Kuehl, 2002). Bonferroni's method was used to perform all pairwise comparisons of treatment groups in FIGS. 7E & F, FIGS. 11A, B, C, FIG. 12A, FIG. 13, FIGS. 14A and B and FIG. 9. Because the normality assumption was not satisfied for the data in FIGS. 3C & D and FIG. 12C, Wilcoxon's rank sum test (Steel et al, 1997) was used to perform all pairwise comparisons of treatment groups using a Bonferroni correction. In FIG. 14D, a two-way ANOVA was used to detect treatment and dose effects and tests for linear trend were subsequently employed to determine significant effects of each compound. In FIG. 10, logistic regression was used to estimate EC50, which was then used to determine the relative binding affinity. […]

Test [3] deals with calvaria-derived murine osteoblastic cells. Nature of the test: Etoposide-induced apoptosis of calvaria-derived osteoblastic cells. The format is cell-based, mouse. From the text: HeLa cells were co-transfected with reporter constructs in which SRE or AP-1 drive the expression of secreted alkaline phosphatase (SEAP), along with the wild type ERα (A and B); or its ligand binding domain (E), or E fused to a membrane (E-Mem) or nuclear (E-Nuc) localization sequence (A). A dominant negaitve (dn) MEK or dn Jnk were also introduced into a subset of the ERα transfected cells. […] In FIGS. 1A and 1B, 100% indicates activity in vehicle treated cells. (C) HeLa cells were co-transfected with the ERα and nEGFP and wild type or dn mutants of the indicated transcription factors. […] (D) HeLa cells (upper panel) were transiently co-transfected with the ERα, a nonphosphorylatable dn mutant of Bad. Calvaria-derived murine osteoblastic cells (lower panel) were pre-treated with the P13K inhibitor wortmannin. Cells were then treated as in (C). […] (E) Proposed model for a kinase-mediated non-genotropic regulation of gene transcription and apoptosis by sex steroids.
(§1) Osteoblastic cells (A) were isolated from calvaria of neonatal female or male mice, the sex of which was determined by Southern blot analysis of liver DNA with a Y chromosome specific cDNA probe; and cultured as previously described. The ability of the indicated steroids to protect against etoposide induced apoptosis was determined as in FIG. 1D, lower panel. (B) Osteoclasts were generated in bone marrow cultures from adult female or male mice, and then treated with vehicle or the indicated concentrations of steroids for 24 hours at which point the number of cells undergoing apoptosis was determined. Representative results from 1 of 4 females and 1 of 4 males examined are shown. Each point represents the mean of triplicate determinations±SD. *p<0.05 vs. vehicle, by ANOVA. (C & D) Eight-month old Swiss Webster mice (n=8-10 per group) were sham-operated, ovariectomized (OVX) or orchidectomized (ORX). […] BMD and wet uterine or seminal vesicle weight was determined six weeks later. Bars indicate means±SD. *p<0.05 vs OVX or ORX.
(§2) Quantification of apoptotic cells in vitro: Apoptosis of HeLa cells or calvaria-derived osteoblastic cells was quantified by direct visualization of changes in nuclear morphology or by trypan blue staining, respectively, as previously described (Kousteni et al, 2001). Apoptosis of osteoclasts, derived from bone marrow cells cultured with 30 ng/ml M-CSF and 30 ng/ml soluble RANK ligand, was quantified by measuring caspase 3 activity as previously described (Weinstein et al, 2002).

For test [4], the system named is osteoclasts generated in bone marrow cultures from adult female or male mice. Nature of the test: Osteoclast apoptosis in bone marrow derived cultures. The format is cell-based, mouse. As for the experimental part:
as §1
FIG. 8 illustrates the pro-apoptotic effect of sex steroids on osteoclasts requires Src/ERK signaling. […] After 24 hours, the percentage of apoptotic osteoclasts was determined as in FIG. 7.
as §2

The structures appear in SMILES notation.

The text below walks through data of patent publication US20030119800A1, “Bone anabolic compounds and methods of use” (priority 2001, published 2003).

T1 sequence (P03372 whole entry): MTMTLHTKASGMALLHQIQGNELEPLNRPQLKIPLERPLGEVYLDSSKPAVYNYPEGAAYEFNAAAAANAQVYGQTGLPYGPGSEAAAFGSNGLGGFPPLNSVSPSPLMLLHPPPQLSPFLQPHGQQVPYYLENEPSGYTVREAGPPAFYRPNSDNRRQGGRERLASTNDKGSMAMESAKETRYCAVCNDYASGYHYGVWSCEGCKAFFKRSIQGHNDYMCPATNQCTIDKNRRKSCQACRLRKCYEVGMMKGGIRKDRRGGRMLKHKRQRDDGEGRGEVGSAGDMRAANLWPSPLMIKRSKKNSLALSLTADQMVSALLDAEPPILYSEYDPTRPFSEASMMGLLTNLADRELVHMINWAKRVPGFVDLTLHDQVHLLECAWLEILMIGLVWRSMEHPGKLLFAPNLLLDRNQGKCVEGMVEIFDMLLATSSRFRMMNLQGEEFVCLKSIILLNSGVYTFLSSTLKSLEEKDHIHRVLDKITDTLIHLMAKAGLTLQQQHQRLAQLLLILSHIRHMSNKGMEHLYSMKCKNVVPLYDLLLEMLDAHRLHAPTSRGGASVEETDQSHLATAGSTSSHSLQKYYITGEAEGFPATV

Turning to `C[C@]12CC[C@H]3[C@@H](CCC4=C[C@H](O)CC[C@@H]43)[C@@H]1CC[C@@H]2O` [4-estren-3α,17β-diol], in test [1], the “AP-1-dependent transcriptional activity (AP-1-SEAP)” value was “downregulation of AP-1” and the “SRE-dependent transcriptional activity (SRE-SEAP)” value was “Stimulation of SRE”. Moreover, the “binding affinity for the ER compared to E2” value in test [2] was “lower binding affinity”. For the same molecule, in test [3] (cell preparations from females or males), the “difference in potency in osteoblasts from one sex versus the other” value is listed as “no difference”. In addition, in test [3] (cells from female or male mice, dose dependent manner), the “etoposide-induced apoptosis in primary cultures of osteoblasts” value was “attenuated etoposide-induced apoptosis”. In addition, the “difference in potency in osteoclasts from females and males” value in test [4] is reported as “no difference”.
